Source: patent US10509041B2, “Glucose derivative, and cell imaging method and imaging agent using said derivative” (HIROSAKI UNIVERSITY, priority 2014, dated 2019)

Legend:
[1] = Fluorescence spectrum (excitation and fluorescence maxima); format: physicochemical
Source text: The fluorescence spectra of CDG synthesized in (1) and QDG synthesized in (2) were compared with the fluorescence spectrum of 2-NBDLG (manufactured by Peptide Institute, Inc.).
The numeric values described above the graph denote the fluorescence maximum of CDG and QDG, respectively. It is evident that the fluorescence maximum was largely shifted to shorter wavelength as compared with the fluorescence maximum of 2-NBDLG present around 550 nm.

[2] = test system: mouse insulinoma cells (MIN6); assay: Increase in fluorescence intensity (uptake) after administration of fluorescent glucose derivative to MIN6 cells, influence of cytochalasin B (CB) or phloretin (PHT), fluorescence microplate reader; format: cell-based; details: QDG final concentration 100 NM as printed, Ex 354 nm, Em 435 nm

With `O=c1cc(C(F)(F)F)c2ccc(NC3C(O)OC(CO)[C@@H](O)C3O)cc2o1` (stereo partly drawn) [Compound 4-TFMCDG, 2-deoxy-2-(2-oxo-2H-4-trifluoromethyl-chromen-7-yl)amino-D-glucose] the “maximum excitation wavelength (Ex max)” value [1] was 380.0 nm and the “maximum fluorescence wavelength (Em max)” value [1] was 500.0 nm.
In the case of `Cc1cc2ccc(NC3C(O)OC(CO)[C@@H](O)[C@@H]3O)cc2oc1=O` (stereo partly drawn) [Compound 3-MCDG, 2-deoxy-2-(2-oxo-3-methyl-2H-chromen-7-yl)amino-D-glucose], the “maximum excitation wavelength (Ex max)” value [1] is reported as 361.0 nm and the “maximum fluorescence wavelength (Em max)” value [1] is reported as 460.0 nm.
With `O=c1ccc2ccc(NC3C(O)OC(CO)[C@H](O)[C@H]3O)cc2[nH]1` (stereo partly drawn) [QLG, 2-deoxy-2-(2-oxo-1,2-dihydroquinolin-7-yl)amino-L-glucose] the “maximum excitation wavelength (Ex max)” value [1] was 353.5 nm and the “maximum fluorescence wavelength (Em max)” value [1] was 423.0 nm.
For `Cc1cc(=O)oc2cc(NC3C(O)OC(CO)[C@@H](O)[C@@H]3O)ccc12` (stereo partly drawn) [Compound 4-MCDG, 2-deoxy-2-(2-oxo-4-methyl-2H-chromen-7-yl)amino-D-glucose], the “maximum excitation wavelength (Ex max)” value [1] was 362.0 nm and the “maximum fluorescence wavelength (Em max)” value [1] was 446.0 nm.
In the case of `O=c1ccc2ccc(NC3C(O)OC(CO)[C@@H](O)[C@@H]3O)cc2[nH]1` (stereo partly drawn) [QDG, 2-deoxy-2-(2-oxo-1,2-dihydroquinolin-7-yl)amino-D-glucose], the “maximum excitation wavelength (Ex max)” value [1] is reported as 353.5 nm, the “maximum fluorescence wavelength (Em max)” value [1] is reported as 423.0 nm and the “effect of CB on increase in fluorescence intensity caused by administration” value ([2]; CB as in Example 11) is reported as “significantly inhibited”. For the same molecule, the “effect of PHT on increase in fluorescence intensity caused by administration” value ([2]; PHT as in Example 12) was “more strongly inhibited”.
For `O=c1oc2cc(NC3C(O)OC(CO)[C@@H](O)[C@@H]3O)ccc2cc1C(F)(F)F` (stereo partly drawn) [Compound 3-TFMCDG, 2-deoxy-2-(2-oxo-3-trifluoromethyl-2H-chromen-7-yl)amino-D-glucose], the “maximum excitation wavelength (Ex max)” value [1] was 381.0 nm and the “maximum fluorescence wavelength (Em max)” value [1] was 455.0 nm.
